What was measured:
HCMV polymerase = target: T1, HCMV polymerase (Human cytomegalovirus, UniProt P08546); assay: HCMV polymerase scintillation proximity assay (SPA); format: biochemical; conditions: CMV polymerase
T1 construct: made in house; host or cells: recombinant baculovirus-infected SF-9 cells
Procedure: The HCMV polymerase assay is performed using a scintillation proximity assay (SPA) as described in several references, such as N. D. Cook, et al., Pharmaceutical Manufacturing International, pages 49-53 (1992); K. Takeuchi, Laboratory Practice, September issue (1992); U.S. Pat. No. 4,568,649 (1986); which are incorporated by reference herein. Reactions are performed in 96-well plates. The assay is conducted in 100 μl volume with 5.4 mM HEPES (pH 7.5), 11.7 mM KCl, 4.5 mM MgCl2, 0.36 mg/ml BSA, and 90 nM 3H-dTTP. Assays are run with and without CHAPS, (3-[(3-Cholamidopropyl)-dimethylammonio]-1-propane-sulfonate) at a final concentration of 2 mM. HCMV polymerase is diluted in enzyme dilution buffer containing 50% glycerol, 250 mM NaCl, 10 mM HEPES (pH 7.5), 100 μg/ml BSA, and 0.01% sodium azide. The HCMV polymerase, which is expressed in recombinant baculovirus-infected SF-9 cells and purified according to literature procedures, is added at 10% (or 10 μl ) of the final reaction volume, i.e., 100 μl. Compounds are diluted in 50% DMSO and 10 μl are added to each well. Control wells contain an equivalent concentration of DMSO. Unless noted otherwise, reactions are initiated via the addition of 6 nM biotinylated poly(dA)-oligo(dT) template/primer to reaction mixtures containing the enzyme, substrate, and compounds of interest. Plates are incubated in a 25 C or 37 C H20 bath and terminated via the addition of 40 μl/reaction of 0.5 M EDTA (pH 8) per well. Reactions are terminated within the time-frame during which substrate incorporation is linear and varied depending upon the enzyme and conditions used, i.e., 30 min. for HCMV polymerase. Ten μl of streptavidin-SPA beads (20 mg/mil in PBS/10% glycerol) are added following termination of the reaction. Plates are incubated 10 min. at 37 C, then equilibrated to room temperature, and counted on a Packard Topcount. Linear regressions are performed and IC50's are calculated using computer software.
A modified version of the above HCMV polymerase assay is performed as described above, but with the following changes: Compounds are diluted in 100% DMSO until final dilution into assay buffer. In the previous assay, compounds are diluted in 50% DMSO. 4.5 mM dithiotherotol (DTT) is added to the polymerase buffer.

VZV polymerase = VZV polymerase (Varicella-zoster virus, UniProt P09252); assay: Polymerase scintillation proximity assay (SPA), VZV; format: biochemical
HSV polymerase = HSV polymerase (Human herpesvirus 1, UniProt P04293); assay: Polymerase scintillation proximity assay (SPA), HSV; format: biochemical
Sequence of HSV polymerase (P04293 whole entry): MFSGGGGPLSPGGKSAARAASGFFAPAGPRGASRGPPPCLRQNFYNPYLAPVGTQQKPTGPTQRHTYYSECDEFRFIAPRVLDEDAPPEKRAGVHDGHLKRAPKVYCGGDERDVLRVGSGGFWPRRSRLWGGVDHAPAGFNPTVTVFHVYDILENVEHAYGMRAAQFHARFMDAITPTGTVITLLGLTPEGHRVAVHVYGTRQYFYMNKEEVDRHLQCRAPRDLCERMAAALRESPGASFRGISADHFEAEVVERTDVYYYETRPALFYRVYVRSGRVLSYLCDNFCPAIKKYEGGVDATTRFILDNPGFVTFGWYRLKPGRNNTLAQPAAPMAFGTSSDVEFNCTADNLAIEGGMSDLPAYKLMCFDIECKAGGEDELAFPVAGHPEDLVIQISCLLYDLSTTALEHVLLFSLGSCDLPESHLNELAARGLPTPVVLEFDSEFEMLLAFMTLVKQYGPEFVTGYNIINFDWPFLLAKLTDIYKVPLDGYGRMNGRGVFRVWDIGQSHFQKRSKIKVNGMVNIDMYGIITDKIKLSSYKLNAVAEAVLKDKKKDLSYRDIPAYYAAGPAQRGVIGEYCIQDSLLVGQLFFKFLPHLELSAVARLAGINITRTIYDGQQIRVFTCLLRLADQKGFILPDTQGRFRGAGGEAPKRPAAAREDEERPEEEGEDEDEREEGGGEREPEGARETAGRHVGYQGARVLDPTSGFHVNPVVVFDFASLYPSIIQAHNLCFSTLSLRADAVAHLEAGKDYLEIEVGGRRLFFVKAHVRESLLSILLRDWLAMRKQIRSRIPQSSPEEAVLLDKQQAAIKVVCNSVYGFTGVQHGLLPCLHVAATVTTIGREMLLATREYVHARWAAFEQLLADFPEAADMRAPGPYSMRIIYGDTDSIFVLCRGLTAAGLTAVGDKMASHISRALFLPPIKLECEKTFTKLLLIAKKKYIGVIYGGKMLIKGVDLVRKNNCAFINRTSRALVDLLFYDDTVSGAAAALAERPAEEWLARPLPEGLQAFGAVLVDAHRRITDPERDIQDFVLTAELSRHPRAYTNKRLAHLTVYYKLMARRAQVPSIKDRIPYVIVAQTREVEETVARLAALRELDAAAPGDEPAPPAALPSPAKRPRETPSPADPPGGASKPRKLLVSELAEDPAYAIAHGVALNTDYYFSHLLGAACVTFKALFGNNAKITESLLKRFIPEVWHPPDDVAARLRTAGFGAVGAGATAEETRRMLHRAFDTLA

T1 sequence (P08546 whole entry): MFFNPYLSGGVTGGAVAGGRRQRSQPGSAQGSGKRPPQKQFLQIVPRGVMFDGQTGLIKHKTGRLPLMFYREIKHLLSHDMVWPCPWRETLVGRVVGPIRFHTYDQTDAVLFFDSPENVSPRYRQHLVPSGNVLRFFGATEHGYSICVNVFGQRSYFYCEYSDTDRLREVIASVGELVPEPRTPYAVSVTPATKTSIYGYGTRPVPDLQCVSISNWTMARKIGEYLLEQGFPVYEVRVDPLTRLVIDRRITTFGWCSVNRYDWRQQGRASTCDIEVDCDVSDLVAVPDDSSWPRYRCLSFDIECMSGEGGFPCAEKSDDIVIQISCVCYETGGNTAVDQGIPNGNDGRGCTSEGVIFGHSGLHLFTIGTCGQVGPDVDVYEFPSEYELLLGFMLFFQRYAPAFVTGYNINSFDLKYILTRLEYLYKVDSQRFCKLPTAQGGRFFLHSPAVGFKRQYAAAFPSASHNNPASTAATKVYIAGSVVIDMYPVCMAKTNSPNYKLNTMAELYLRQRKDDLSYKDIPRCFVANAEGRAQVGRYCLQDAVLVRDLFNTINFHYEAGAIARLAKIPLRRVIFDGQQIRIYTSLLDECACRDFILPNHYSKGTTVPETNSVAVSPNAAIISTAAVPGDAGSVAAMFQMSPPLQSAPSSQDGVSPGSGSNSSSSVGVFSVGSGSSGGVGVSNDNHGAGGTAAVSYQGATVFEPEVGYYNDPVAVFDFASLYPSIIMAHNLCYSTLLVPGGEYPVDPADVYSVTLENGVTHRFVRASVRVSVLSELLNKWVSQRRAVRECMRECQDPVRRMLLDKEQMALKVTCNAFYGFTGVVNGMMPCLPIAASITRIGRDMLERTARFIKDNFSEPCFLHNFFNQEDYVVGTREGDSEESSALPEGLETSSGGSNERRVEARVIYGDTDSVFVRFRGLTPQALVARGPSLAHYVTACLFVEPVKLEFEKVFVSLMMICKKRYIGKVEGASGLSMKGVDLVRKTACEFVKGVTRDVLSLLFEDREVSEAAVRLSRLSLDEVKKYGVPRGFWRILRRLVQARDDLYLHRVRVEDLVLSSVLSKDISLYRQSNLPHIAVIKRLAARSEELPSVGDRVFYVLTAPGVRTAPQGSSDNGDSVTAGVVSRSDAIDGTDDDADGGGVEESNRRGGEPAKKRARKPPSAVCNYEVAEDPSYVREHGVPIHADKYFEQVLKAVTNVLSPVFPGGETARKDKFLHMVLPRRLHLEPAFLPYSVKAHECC
Sequence of VZV polymerase (P09252 whole entry): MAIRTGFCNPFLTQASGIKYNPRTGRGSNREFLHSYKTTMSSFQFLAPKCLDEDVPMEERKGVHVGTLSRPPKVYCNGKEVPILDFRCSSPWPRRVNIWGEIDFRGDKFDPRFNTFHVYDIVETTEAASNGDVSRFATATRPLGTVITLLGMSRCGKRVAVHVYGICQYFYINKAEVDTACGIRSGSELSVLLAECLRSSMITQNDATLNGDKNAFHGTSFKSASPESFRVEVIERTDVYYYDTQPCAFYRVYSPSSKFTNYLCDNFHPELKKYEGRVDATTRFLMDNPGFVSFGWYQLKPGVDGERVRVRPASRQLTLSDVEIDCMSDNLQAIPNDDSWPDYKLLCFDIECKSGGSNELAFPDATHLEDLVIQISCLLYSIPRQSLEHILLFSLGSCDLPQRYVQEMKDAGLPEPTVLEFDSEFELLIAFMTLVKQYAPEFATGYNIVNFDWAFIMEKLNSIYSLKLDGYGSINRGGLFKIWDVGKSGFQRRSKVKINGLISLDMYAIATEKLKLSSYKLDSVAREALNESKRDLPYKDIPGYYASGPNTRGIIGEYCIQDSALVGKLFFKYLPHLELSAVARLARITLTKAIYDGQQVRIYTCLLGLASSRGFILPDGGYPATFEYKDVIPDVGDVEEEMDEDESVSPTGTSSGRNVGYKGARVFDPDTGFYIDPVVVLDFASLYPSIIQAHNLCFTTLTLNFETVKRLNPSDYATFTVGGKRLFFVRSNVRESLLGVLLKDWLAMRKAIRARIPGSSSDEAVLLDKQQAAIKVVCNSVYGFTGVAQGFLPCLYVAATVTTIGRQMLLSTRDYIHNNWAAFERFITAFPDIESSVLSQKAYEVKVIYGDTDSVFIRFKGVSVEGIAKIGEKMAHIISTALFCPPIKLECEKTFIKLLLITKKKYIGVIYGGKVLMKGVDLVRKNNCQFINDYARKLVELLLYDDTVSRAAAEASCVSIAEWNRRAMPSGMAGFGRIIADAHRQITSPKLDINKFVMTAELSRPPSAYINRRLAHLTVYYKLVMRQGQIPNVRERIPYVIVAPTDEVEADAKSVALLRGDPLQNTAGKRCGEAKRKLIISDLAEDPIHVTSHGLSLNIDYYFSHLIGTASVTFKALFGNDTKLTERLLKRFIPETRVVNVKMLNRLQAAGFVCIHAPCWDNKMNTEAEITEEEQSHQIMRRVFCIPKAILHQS

Row | Structure (SMILES) | IC50 (HCMV polymerase) [µM] | melting point [°C] | IC50 (VZV polymerase) [µM] | IC50 (HSV polymerase) [µM]
1 | Cn1cc(C(=O)NCc2ccc(Cl)cc2)c(=O)c2cc(CN3CCOCC3)cc(C#CCO)c21 [Example 4, N-(4-chlorobenzyl)-8-(3-hydroxy-1-propynyl)-1-methyl-6-(4-morpholinylmethyl)-4-oxo-1,4-dihydro-3-quinolinecarboxamide] | 0.83 | 180 to 183 | 0.36 | 0.83
2 | Cn1cc(C(=O)NCc2ccc(Cl)cc2)c(=O)c2cc(CC3CCOCC3)cc(C#CCO)c21 [Example 1, N-(4-chlorobenzyl)-8-(3-hydroxy-1-propynyl)-1-methyl-4-oxo-6-(tetrahydro-2H-pyran-4-ylmethyl)-1,4-dihydro-3-quinolinecarboxamide] | 0.32 | 166 to 168 | 0.18 | 0.25
3 | Cn1cc(C(=O)NCc2ccc(Cl)cc2)c(=O)c2cc(CN3CCOCC3)cc(C#CCn3ccnc3)c21 [Example 23, N-(4-chlorobenzyl)-8-[3-(1 H-imidazol-1-yl)prop-1-ynyl]-1-methyl-6-(morpholin-4-ylmethyl)-4-oxo-1,4-dihydroquinoline-3-carboxamide] | 0.33 | 178 to 180 | 0.1 | 0.22
4 | C[C@@H](O)C#Cc1cc(CN2CCOCC2)cc2c(=O)c(C(=O)NCc3ccc(Cl)cc3)cn(C)c12 [Example 8, N-(4-chlorobenzyl)-8-[(3R)-3-hydroxy-1-butynyl]-1-methyl-6-(4-morpholinylmethyl)-4-oxo-1,4-dihydro-3-quinolinecarboxamide] | 0.87 | 147 to 150 | 0.48 | 1
5 | Cn1cc(C(=O)NCc2ccc(Cl)cc2)c(=O)c2cc(CN3CCOCC3)cc(C#CCCO)c21 [Example 6, N-(4-chlorobenzyl)-8-(4-hydroxy-1-butynyl)-1-methyl-6-(4-morpholinylmethyl)-4-oxo-1,4-dihydro-3-quinolinecarboxamide] | 0.8 | 168 to 170 | 0.36 | 0.82
6 | Cn1cc(C(=O)NCc2ccc(Cl)cc2)c(=O)c2cc(CN3CCOCC3)cc(C#Cc3cccnc3)c21 [Example 16, N-(4-chlorobenzyl)-1-methyl-6-(morpholin-4-ylmethyl)-4-oxo-8-(pyridin-3-ylethynyl)-1,4-dihydroquinoline-3-carboxamide] | 0.47 | 195 to 197 | 0.15 | 0.28
7 | Cn1cc(C(=O)NCc2ccc(Cl)cc2)c(=O)c2cc(CN3CCOCC3)cc(C#Cc3ccccn3)c21 [Example 15, N-(4-chlorobenzyl)-1-methyl-6-(morpholin-4-ylmethyl)-4-oxo-8-(pyridin-2-ylethynyl)-1,4-dihydroquinoline-3-carboxamide] | 0.32 | 234 to 236 | 0.14 | 0.26
8 | Cn1cc(C(=O)NCc2ccc(Cl)cc2)c(=O)c2cc(CN3CCOCC3)cc(C#Cc3ccncc3)c21 [Example 17, N-(4-chlorobenzyl)-1-methyl-6-(morpholin-4-ylmethyl)-4-oxo-8-(pyridin-4-ylethynyl)-1,4-dihydroquinoline-3-carboxamide] | 0.42 | 200 to 202 | 0.11 | 0.21
9 | Cn1cc(C(=O)NCc2ccc(Cl)cc2)c(=O)c2cc(CN3CCOCC3)cc(C#CCCCO)c21 [Example 10, N-(4-chlorobenzyl)-8-(5-hydroxy-1-pentynyl)-1-methyl-6-(4-morpholinylmethyl)-4-oxo-1,4-dihydro-3-quinolinecarboxamide] | 0.48 | 179 to 182 | 0.16 | 0.41
10 | C[C@H](O)C#Cc1cc(CN2CCOCC2)cc2c(=O)c(C(=O)NCc3ccc(Cl)cc3)cn(C)c12 [Example 7, N-(4-chlorobenzyl)-8-[(3S)-3-hydroxy-1-butynyl]-1-methyl-6-(4-morpholinylmethyl)-4-oxo-1,4-dihydro-3-quinolinecarboxamide] | 0.76 | 158 to 161 | 0.18 | 0.45
